Experimental data taken from PubChem BioAssay (NCI).
Where “and” joins values, the source holds several entries; their conditions need not be identical. Equal values may be shown once.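 Assay format: 96-well plates, 48-hour exposure. GI50 is the concentration that inhibits growth by half. TGI marks complete inhibition of growth.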

Assays:
Test in all cases: NCI-60 cell line screen, 48 h
KM12 colon = test system: KM12 colon
M14 melanoma = test system: M14 melanoma
SNB-75 CNS = test system: SNB-75 CNS
SW-620 colon = test system: SW-620 colon
T-47D breast = test system: T-47D breast
U251 CNS = test system: U251 CNS
UO-31 renal = test system: UO-31 renal
HL-60(TB) leukemia = test system: HL-60(TB) leukemia

## C=CCC(NCc1ccccc1)c1cn(C(=O)OCC)c2ccccc12 (stereo unspecified)
KM12 colon
  GI50: 28400 nM
  TGI: > 100 µM
M14 melanoma
  GI50: 18600 nM
  TGI: 39.2 µM
SNB-75 CNS
  GI50: 43100 nM
  TGI: > 100 µM
SW-620 colon
  GI50: 18300 nM
  TGI: 41.7 µM
T-47D breast
  GI50: 33300 nM
  TGI: > 100 µM
U251 CNS
  GI50: 19200 nM
  TGI: 39.3 µM
UO-31 renal
  GI50: 30400 nM
  TGI: > 100 µM

## CCOC(=O)c1nc2sc(Cl)cn2c1/C=N/N=C(N)N
HL-60(TB) leukemia
  GI50: 26100 nM
  TGI: > 100 µM
KM12 colon
  GI50: 18300 nM
  TGI: 36.6 µM
M14 melanoma
  GI50: 18800 nM
  TGI: 45.6 µM
SNB-75 CNS
  GI50: 27900 nM
  TGI: 68.8 µM
SW-620 colon
  GI50: 14700 nM
  TGI: 43.8 µM
T-47D breast
  GI50: 30600 nM
  TGI: > 74 µM
U251 CNS
  GI50: 23600 nM
  TGI: > 53.9 µM
UO-31 renal
  GI50: 18300 nM
  TGI: 35.6 µM

## O=C1C=CC(=O)N1c1ccc2ccccc2c1
HL-60(TB) leukemia
  GI50: 7740 nM
  TGI: 33.5 µM
KM12 colon
  GI50: 24100 nM
  TGI: 71 µM
M14 melanoma
  GI50: 14500 nM
  TGI: 28.4 µM
SNB-75 CNS
  GI50: 16600 nM
  TGI: 38.4 µM
SW-620 colon
  GI50: 1790 nM
  TGI: 3.62 µM
T-47D breast
  GI50: 3730 nM
  TGI: 14.7 µM
U251 CNS
  GI50: 17800 nM
  TGI: 33.8 µM
UO-31 renal
  GI50: 12400 nM
  TGI: 25.1 µM

## C=CC(=O)N1CCN(c2nc(OC[C@@H]3CCCN3C)nc3c(F)c(-c4nc(N)cc(C)c4C(F)(F)F)c(Cl)cc23)[C@@H](C)C1
HL-60(TB) leukemia
  GI50: 2910 nM
  TGI: > 100 µM
KM12 colon
  GI50: 2110 nM
  TGI: 4.56 µM
M14 melanoma
  GI50: 1850 nM
  TGI: 3.57 µM
SNB-75 CNS
  GI50: 1220 nM
  TGI: 2.74 µM
SW-620 colon
  GI50: 1950 nM
  TGI: 3.71 µM
T-47D breast
  GI50: 2140 nM
  TGI: 7.17 µM
U251 CNS
  GI50: 1960 nM
  TGI: 5.05 µM
UO-31 renal
  GI50: 1920 nM
  TGI: 5.01 µM

## O=C(Nc1ccc(Br)cc1)c1cc(Br)ccc1O
HL-60(TB) leukemia
  GI50: 408 nM and 1120 nM
  TGI: 4.54 µM and 3.8 µM
KM12 colon
  GI50: 1670 nM and 2000 nM
  TGI: 4.99 µM and 5.31 µM
M14 melanoma
  GI50: 1000 nM and 2130 nM
  TGI: 7.07 µM and 18.2 µM
SNB-75 CNS
  GI50: 348 nM and 1340 nM
  TGI: 3.07 µM and 14.3 µM
SW-620 colon
  GI50: 986 nM and 2000 nM
  TGI: 8.61 µM and 6.87 µM
T-47D breast
  GI50: 337 nM and 604 nM
  TGI: 5.02 µM and 7.42 µM
U251 CNS
  GI50: 417 nM and 682 nM
  TGI: > 100 µM
UO-31 renal
  GI50: 247 nM and 767 nM
  TGI: 2.16 µM and 9.78 µM

## O=C1/C(=C/c2ccc([N+](=O)[O-])s2)Oc2ccc(Br)cc21
HL-60(TB) leukemia
  GI50: 487 nM
  TGI: 7.5 µM
KM12 colon
  GI50: 247 nM
  TGI: 0.623 µM
M14 melanoma
  GI50: 423 nM
  TGI: 1.9 µM
SNB-75 CNS
  GI50: 342 nM
  TGI: 4.17 µM
SW-620 colon
  GI50: 242 nM
  TGI: 0.664 µM
T-47D breast
  GI50: 250 nM
  TGI: 0.804 µM
U251 CNS
  GI50: 211 nM
  TGI: 0.482 µM
UO-31 renal
  GI50: 166 nM
  TGI: 0.346 µM

## CN(C)Cc1nsc(N(C)C)n1
KM12 colon
  TGI: > 100 µM
M14 melanoma
  TGI: > 100 µM
SNB-75 CNS
  TGI: > 100 µM
SW-620 colon
  TGI: > 100 µM
T-47D breast
  TGI: > 100 µM
U251 CNS
  TGI: > 100 µM
UO-31 renal
  TGI: > 100 µM

## O=C(/C=C/c1cccc(Cl)c1)c1ccccc1
HL-60(TB) leukemia
  GI50: 2960 nM
  TGI: 6.58 µM
KM12 colon
  GI50: 1960 nM
  TGI: 4.86 µM
M14 melanoma
  GI50: 3780 nM
  TGI: 13.5 µM
SNB-75 CNS
  GI50: 15100 nM
  TGI: 28.6 µM
SW-620 colon
  GI50: 1470 nM
  TGI: 2.97 µM
T-47D breast
  GI50: 12700 nM
  TGI: 32.2 µM
U251 CNS
  GI50: 2670 nM
  TGI: 7.89 µM
UO-31 renal
  GI50: 6550 nM
  TGI: 21.9 µM

## O=S(=O)(c1ccccc1)C1(C2(S(=O)(=O)c3ccccc3)CCN=N2)CCN=N1 (stereo unspecified)
HL-60(TB) leukemia
  TGI: > 100 µM
KM12 colon
  TGI: > 100 µM
M14 melanoma
  TGI: > 100 µM
SNB-75 CNS
  TGI: > 100 µM
SW-620 colon
  TGI: > 100 µM
U251 CNS
  TGI: > 100 µM
UO-31 renal
  TGI: > 100 µM

## COc1cc2c(cc1OCCCN1CCN(CCCOc3cc4c(cc3OC)C(=O)N3C[C@H](F)C[C@H]3C=N4)CC1)N=C[C@@H]1C[C@@H](F)CN1C2=O
HL-60(TB) leukemia
  GI50: < 45 nM
  TGI: 0.797 µM
KM12 colon
  GI50: 180 nM
M14 melanoma
  GI50: 44.1 nM
  TGI: 0.198 µM
SNB-75 CNS
  GI50: 33.8 nM
  TGI: 0.594 µM
SW-620 colon
  GI50: 74.6 nM
  TGI: 10.4 µM
T-47D breast
  GI50: 84.7 nM
  TGI: > 26.5 µM
UO-31 renal
  GI50: 823 nM
  TGI: 2.65 µM

## Cc1nc2ccccc2c(/C=C/c2ccc(C(F)(F)F)cc2)c1C(=O)/C=C/c1ccccc1
HL-60(TB) leukemia
  GI50: 1940 nM
  TGI: 4.44 µM
SNB-75 CNS
  GI50: 1380 nM
  TGI: 2.81 µM
T-47D breast
  GI50: 1070 nM
  TGI: 3.13 µM
U251 CNS
  GI50: 1470 nM
  TGI: 2.92 µM
UO-31 renal
  GI50: 1080 nM
  TGI: 2.27 µM

## O=C(O)CC(CC(=O)O)n1cccc1
HL-60(TB) leukemia
  TGI: > 100 µM
KM12 colon
  TGI: > 100 µM
M14 melanoma
  TGI: > 100 µM
SW-620 colon
  TGI: > 100 µM
T-47D breast
  TGI: > 100 µM
U251 CNS
  TGI: > 100 µM
UO-31 renal
  TGI: > 100 µM

## CN(COC(=O)C(C)(C)C)c1nc(N(C)COC(=O)C(C)(C)C)nc(N(C)COC(=O)C(C)(C)C)n1
HL-60(TB) leukemia
  TGI: 63.6 µM
KM12 colon
  TGI: > 100 µM
M14 melanoma
  TGI: 47.6 µM
SNB-75 CNS
  TGI: > 100 µM
SW-620 colon
  TGI: 82.2 µM
T-47D breast
  TGI: > 100 µM
UO-31 renal
  TGI: > 100 µM

## COC(=O)c1cc2c3cc(Cl)ccc3[nH]c2c2ncccc12
HL-60(TB) leukemia
  GI50: > 100000 nM
  TGI: > 100 µM
KM12 colon
  GI50: > 100000 nM
  TGI: > 100 µM
SNB-75 CNS
  GI50: > 100000 nM
  TGI: > 100 µM
SW-620 colon
  GI50: > 100000 nM
  TGI: > 100 µM
T-47D breast
  GI50: 24700 nM
  TGI: > 100 µM
U251 CNS
  GI50: > 100000 nM
  TGI: > 100 µM
UO-31 renal
  GI50: > 100000 nM
  TGI: > 100 µM

## O=C(Nc1cccc2[nH]c(C(F)(F)F)nc12)c1ccc(Br)cc1F
HL-60(TB) leukemia
  GI50: 3050 nM
  TGI: 16 µM
KM12 colon
  GI50: 3290 nM
  TGI: 12 µM
M14 melanoma
  GI50: 3830 nM
  TGI: 14.5 µM
SNB-75 CNS
  GI50: 2680 nM
  TGI: 18 µM
SW-620 colon
  GI50: 3380 nM
  TGI: 13.2 µM
T-47D breast
  GI50: 2260 nM
  TGI: 7.49 µM
UO-31 renal
  GI50: 1980 nM
  TGI: 7.36 µM

## NC(=O)c1c(NC(=O)c2ccc(C(F)(F)F)cc2Cl)sc2c1CCC(=O)C2
HL-60(TB) leukemia
  GI50: 273 nM
  TGI: 1.09 µM
KM12 colon
  GI50: 382 nM
  TGI: 1.73 µM
M14 melanoma
  GI50: 355 nM
  TGI: 1.89 µM
SW-620 colon
  GI50: 176 nM
  TGI: 1.36 µM
T-47D breast
  GI50: 238 nM
  TGI: 4.73 µM
U251 CNS
  GI50: 270 nM
  TGI: 1.75 µM
UO-31 renal
  GI50: 237 nM
  TGI: 0.809 µM

## COc1ccc(/C(=N/O)c2cc(F)c(F)c(OC)c2F)cc1O
KM12 colon
  GI50: 396 nM
  TGI: > 100 µM
M14 melanoma
  GI50: 344 nM
  TGI: > 100 µM
SNB-75 CNS
  GI50: 309 nM
  TGI: > 100 µM
SW-620 colon
  GI50: 435 nM
  TGI: > 100 µM
T-47D breast
  GI50: 530 nM
  TGI: 72.4 µM
U251 CNS
  GI50: 634 nM
  TGI: > 100 µM
UO-31 renal
  GI50: 1360 nM
  TGI: 90.9 µM

## O=C(N/N=C/c1coc2ccc(Cl)cc2c1=O)c1cc(O)c(O)c(O)c1
KM12 colon
  GI50: 21500 nM
  TGI: 69.1 µM
M14 melanoma
  GI50: 19300 nM
  TGI: 47 µM
SNB-75 CNS
  GI50: 72000 nM
  TGI: > 100 µM
SW-620 colon
  GI50: 25800 nM
  TGI: 97.4 µM
T-47D breast
  GI50: > 100000 nM
  TGI: > 100 µM
U251 CNS
  GI50: 22200 nM
  TGI: 57.2 µM
UO-31 renal
  GI50: 40000 nM
  TGI: > 100 µM
